# Laboratory results taken from ChEMBL document CHEMBL5154845, “Dual-acting antitumor agents targeting the A2A adenosine receptor and histone deacetylases: Design and synthesis of 4-(furan-2-yl)-1H-pyrazolo[3,4-d]pyrimidin-6-amine derivatives” (Eur J Med Chem, 2022).
# What was measured:
# [1] = Volume of distribution at steady state in male ICR mouse at 5 mg/kg, iv measured up to 24 hrs by LC-MS/MS analysis; assay type: ADME, organism-based; conditions: in vivo
# [2] = AUC (0 to t) in male ICR mouse at 5 mg/kg, iv measured up to 24 hrs by LC-MS/MS analysis; assay type: ADME, organism-based; design: time < 24 hrs, dose 5 mg/kg, route iv; conditions: in vivo
# [3] = target: T1, Adenosine receptor A3 (Homo sapiens, UniProt P0DMS8); assay: Displacement of [3H]HEMADO from human A3AR incubated for 60 mins by scintillation counter analysis
# T1 sequence (P0DMS8 whole entry): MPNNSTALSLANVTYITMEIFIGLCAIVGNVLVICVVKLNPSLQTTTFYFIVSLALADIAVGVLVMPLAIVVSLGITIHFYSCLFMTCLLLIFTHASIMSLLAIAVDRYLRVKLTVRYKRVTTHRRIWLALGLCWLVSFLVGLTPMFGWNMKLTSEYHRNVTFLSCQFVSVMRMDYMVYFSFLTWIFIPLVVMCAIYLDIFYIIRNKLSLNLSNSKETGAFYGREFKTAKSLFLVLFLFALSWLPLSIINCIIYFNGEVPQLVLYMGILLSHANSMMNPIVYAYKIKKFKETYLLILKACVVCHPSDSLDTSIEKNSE
# [4] = Elimination rate constant in male ICR mouse at 5 mg/kg, iv measured up to 24 hrs by LC-MS/MS analysis; assay type: ADME, organism-based; conditions: in vivo
# [5] = Clearance in male ICR mouse at 20 mg/kg, ip measured up to 24 hrs by LC-MS/MS analysis; assay type: ADME, organism-based; conditions: in vivo
# [6] = Initial plasma concentration in male ICR mouse at 5 mg/kg, iv measured up to 24 hrs by LC-MS/MS analysis; assay type: ADME, organism-based
# [7] = test system: MC-38; assay: Antitumor activity against mouse MC38 cells xenografted in C57 mouse assessed as tumor growth inhibition at 60 mg/kg, ip administered twice a day; assay type: functional; conditions: read-out: TGI
# [8] = AUC (0 to t) in male ICR mouse at 20 mg/kg, ip measured up to 24 hrs by LC-MS/MS analysis; assay type: ADME, organism-based; design: dose 20 mg/kg, time < 24 hrs, route ip; conditions: in vivo
# [9] = test system: MC-38; assay: Antitumor activity against mouse MC38 cells xenografted in C57 mouse assessed as tumor growth inhibition at 150 mg/kg, po administered once a day; assay type: functional; conditions: read-out: TGI
# [10] = target: Histone deacetylase 3 (Homo sapiens, UniProt O15379); assay: Inhibition of HDAC3 (unknown origin) using trypsin and LGK(Ac)-AMC as substrates incubated for 1 hr and measured by fluorescence assay
# [11] = Mean residence time in male ICR mouse at 20 mg/kg, ip measured up to 24 hrs by LC-MS/MS analysis; assay type: ADME, organism-based; conditions: in vivo
# [12] = target: Histone deacetylase 1 (Homo sapiens, UniProt Q13547); assay: Inhibition of HDAC1 (unknown origin) using trypsin and LGK(Ac)-AMC as substrates incubated for 1 hr and measured by fluorescence assay
# [13] = target: T2, Adenosine receptor A2b (Homo sapiens, UniProt P29275); assay: Displacement of [3H]DPCPX from human A2BAR incubated for 60 mins by scintillation counter analysis
# T2 sequence (P29275 whole entry): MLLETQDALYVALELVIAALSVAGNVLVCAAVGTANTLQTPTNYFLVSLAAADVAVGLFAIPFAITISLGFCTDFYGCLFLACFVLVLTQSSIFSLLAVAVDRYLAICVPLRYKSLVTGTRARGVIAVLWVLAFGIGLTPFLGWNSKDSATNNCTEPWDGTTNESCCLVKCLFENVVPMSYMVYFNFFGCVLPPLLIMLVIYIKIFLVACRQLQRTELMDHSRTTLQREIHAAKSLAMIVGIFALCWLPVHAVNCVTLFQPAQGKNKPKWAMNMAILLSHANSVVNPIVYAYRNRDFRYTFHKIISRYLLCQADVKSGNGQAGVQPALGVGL
# [14] = target: Histone deacetylase 2 (Homo sapiens, UniProt Q92769); assay: Inhibition of HDAC2 (unknown origin) using trypsin and LGK(Ac)-AMC as substrates incubated for 1 hr and measured by fluorescence assay
# [15] = Cmax in male ICR mouse at 20 mg/kg, ip measured up to 24 hrs by LC-MS/MS analysis; assay type: ADME, organism-based; design: time < 24 hrs, dose 20 mg/kg, route ip; conditions: in vivo
# [16] = Cmax in male ICR mouse at 20 mg/kg, po measured up to 24 hrs by LC-MS/MS analysis; assay type: ADME, organism-based; design: time < 24 hrs, dose 20 mg/kg, route po; conditions: in vivo
# [17] = target: T3, Histone deacetylase 8 (Homo sapiens, UniProt Q9BY41); assay: Inhibition of HDAC8 (unknown origin) using trypsin and LGK(Ac)-AMC as substrates incubated for 1 hr and measured by fluorescence assay
# T3 sequence (Q9BY41 whole entry): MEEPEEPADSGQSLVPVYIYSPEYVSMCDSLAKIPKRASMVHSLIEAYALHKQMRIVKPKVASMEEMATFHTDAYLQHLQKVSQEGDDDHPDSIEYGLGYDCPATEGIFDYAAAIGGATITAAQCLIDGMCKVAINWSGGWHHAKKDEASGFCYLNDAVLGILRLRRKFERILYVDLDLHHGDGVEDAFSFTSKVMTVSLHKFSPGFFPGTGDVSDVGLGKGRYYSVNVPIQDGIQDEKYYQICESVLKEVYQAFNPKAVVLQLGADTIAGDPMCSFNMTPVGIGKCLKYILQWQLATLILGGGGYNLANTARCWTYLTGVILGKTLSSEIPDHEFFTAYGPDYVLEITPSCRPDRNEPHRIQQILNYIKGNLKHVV
# Sequence of Histone deacetylase 1 (Q13547 whole entry): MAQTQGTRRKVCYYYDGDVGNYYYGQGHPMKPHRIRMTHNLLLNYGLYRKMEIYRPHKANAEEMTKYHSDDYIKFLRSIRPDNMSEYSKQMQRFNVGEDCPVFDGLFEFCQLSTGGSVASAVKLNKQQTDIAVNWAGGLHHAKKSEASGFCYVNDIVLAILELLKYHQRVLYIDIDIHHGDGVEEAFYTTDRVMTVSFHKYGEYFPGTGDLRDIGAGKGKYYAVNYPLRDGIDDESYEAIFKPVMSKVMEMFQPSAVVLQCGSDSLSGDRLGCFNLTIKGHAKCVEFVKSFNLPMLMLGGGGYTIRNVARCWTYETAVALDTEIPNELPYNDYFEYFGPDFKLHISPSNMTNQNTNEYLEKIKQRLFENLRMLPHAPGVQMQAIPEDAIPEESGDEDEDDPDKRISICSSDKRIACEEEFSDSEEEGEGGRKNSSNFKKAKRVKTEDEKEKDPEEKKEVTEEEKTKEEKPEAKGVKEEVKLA
# Sequence of Histone deacetylase 2 (Q92769 whole entry): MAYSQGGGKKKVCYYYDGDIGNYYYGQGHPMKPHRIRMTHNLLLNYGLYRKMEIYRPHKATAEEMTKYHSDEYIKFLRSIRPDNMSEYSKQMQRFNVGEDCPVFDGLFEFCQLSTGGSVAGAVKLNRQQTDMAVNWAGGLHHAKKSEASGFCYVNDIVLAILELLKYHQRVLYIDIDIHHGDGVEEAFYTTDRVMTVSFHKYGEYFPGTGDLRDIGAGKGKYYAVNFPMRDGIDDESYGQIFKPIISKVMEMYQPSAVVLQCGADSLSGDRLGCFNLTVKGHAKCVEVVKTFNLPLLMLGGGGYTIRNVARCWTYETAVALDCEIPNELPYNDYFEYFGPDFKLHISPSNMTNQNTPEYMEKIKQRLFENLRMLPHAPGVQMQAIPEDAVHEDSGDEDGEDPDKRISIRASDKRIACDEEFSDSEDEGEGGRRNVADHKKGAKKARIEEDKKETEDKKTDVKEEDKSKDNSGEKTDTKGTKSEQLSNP
# Sequence of Histone deacetylase 3 (O15379 whole entry): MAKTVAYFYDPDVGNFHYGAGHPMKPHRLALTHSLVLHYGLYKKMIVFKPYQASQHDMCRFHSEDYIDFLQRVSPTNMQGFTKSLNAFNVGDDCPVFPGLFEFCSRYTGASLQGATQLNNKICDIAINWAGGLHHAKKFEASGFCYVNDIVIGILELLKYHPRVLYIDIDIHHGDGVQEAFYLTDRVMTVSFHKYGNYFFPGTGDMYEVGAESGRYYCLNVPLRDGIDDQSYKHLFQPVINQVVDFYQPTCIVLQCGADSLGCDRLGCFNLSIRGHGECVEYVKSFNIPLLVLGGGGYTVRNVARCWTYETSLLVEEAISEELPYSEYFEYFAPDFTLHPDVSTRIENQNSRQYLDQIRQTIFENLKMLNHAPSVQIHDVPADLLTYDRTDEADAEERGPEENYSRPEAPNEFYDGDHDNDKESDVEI
smiles,measurement,setting,value
Nc1nc(-c2ccco2)c2cnn(CCc3ccc(C(=O)Nc4ccccc4N)cc3)c2n1,Vdss,[1],0.92 L/kg
same,AUCt,[2],2098 ng·h/mL
same,Ki,[3],> 10000 nM
same,k el at 24 h,[4],0.000506 s⁻¹
same,CL/F,[5],33.5 mL/min/kg
same,C0 at 24 h,[6],6500 ng/mL
same,inhibition in vivo at 60 mg/kg,[7],85%
same,AUC(0-t) at 24 h,[8],10000 ng·h/mL
same,inhibition in vivo at 150 mg/kg,[9],26%
same,IC50,[10],444 nM
same,MRT,[11],57 min
same,IC50,[12],145 nM
same,Ki,[13],> 10000 nM
same,IC50,[14],240 nM
same,Cmax,[15],8410 ng/mL
same,Cmax,[16],3420 ng/mL
same,IC50,[17],> 10000 nM
